# In article PMC5760527, “Connexin 43 Hemichannel as a Novel Mediator of Sterile and Infectious Inflammatory Diseases” (Scientific Reports, 2018):
# Key:
# [1] = tested on: LPS-induced trypan blue uptake, RAW 264.7 cells; test: Trypan blue uptake assay; assay type: cell-based, murine; details: P5 10 µg/ml, LPS 1.0 µg/ml, 16 h, 0.08% trypan blue, P < 0.05 versus +LPS
# Protocol: Specifically, murine macrophage-like RAW 264.7 cells were stimulated with LPS (1.0 µg/ml) in the absence or presence of P5 peptide (10 µg/ml) for 16 h, and the culture medium was then replaced with 1 × PBS containing 0.08% trypan blue (Cat. # 15250-061, Invitrogen). Phase contrast images of multiple fields were randomly captured, and the percentage of trypan blue-stained cells was calculated.
# [2] = tested on: Balb/c mice, polymicrobial sepsis (CLP); test: CLP-induced sepsis survival; assay type: in vivo; details: P5 8.0 mg/kg
# Source text: (§1) This study was approved and performed in accordance with the guidelines of the Institutional Animal Care and Use Committee of the Feinstein Institute for Medical Research, Manhasset, New York, USA (Animal Protocol #2008-033, Approval date: September 10, 2014). To evaluate the effect of various Cx43 mimetic peptides on sepsis lethality, a clinically relevant animal model of sepsis induced by cecal ligation and puncture (CLP) was employed. Briefly, the cecum of Balb/c mice was ligated at about 5 mm from the cecal tip, and then punctured once with a 22-gauge needle. GAP26, TAT-GAP19 or P5 peptides were administered intraperitoneally into mice at indicated doses and time points, and animal survival rates were monitored for up to 2 wks. The Kaplan-Meier method was used to compare the differences in mortality rates between groups.
# Cx43 EL2 peptide = test: Surface Plasmon Resonance, Cx43 EL2 peptide; assay type: binding; details: synthetic full-length EL2 peptide, data not shown
# [3] = tested on: TUNEL-positive cells, lungs of septic mice (CLP); test: TUNEL staining of septic lungs; assay type: in vivo, Balb/c mice; details: lungs at 24 h post CLP, at protective doses; 5–8 fields; P < 0.05 versus CLP
# Source text: as §1
# Upper and lower lobe lung tissues were collected at 24 h post CLP, fixed in 4% paraformaldehyde, embedded in paraffin, and cut into 5 µm thick sections. […] Five to eight fields of view were randomly selected for each tissue section, and the number of TUNEL-positive green cells was expressed as an average of percentage of total DAPI-positive blue cells.
# [4] = tested on: Panx1 hemichannel permeability, macrophages; test: Lucifer Yellow dye uptake in presence of calcium (Panx1 hemichannel permeability); assay type: cell-based
# [5] = tested on: cytokines and chemokines, RAW 264.7 cells; test: Cytokine antibody array; assay type: cell-based, murine; details: P5 10 μM, LPS 16 h, 62-cytokine antibody array
# Protocol: Murine Cytokine Antibody Arrays (Cat. No. M0308003, RayBiotech Inc., Norcross, GA, USA), which respectively detect 62 cytokines on one membrane, were used to determine cytokine levels in macrophage-conditioned culture medium as previously described[51],[54]. Briefly, the membranes were sequentially incubated with equal volumes cell-conditioned culture medium (200 μl), primary biotin-conjugated antibodies, and horseradish peroxidase–conjugated streptavidin.
# Cx43 EL1 peptide = target: T1, Cx43 EL1 peptide (Homo sapiens, UniProt P17302); test: Surface Plasmon Resonance, Cx43 EL1 peptide; assay type: binding; details: synthetic full-length EL1 peptide, data not shown
# T1 construct: synthetic full-length Cx43 EL1 or EL2 peptide as judged by the Surface Plasmon Resonance Analysis
# T1 sequence (P17302 45-76 limits assumed): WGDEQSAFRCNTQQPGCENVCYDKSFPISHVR
# [6] = tested on: LPS-induced ATP release, RAW 264.7 cells; test: ATP release assay; assay type: cell-based, murine; details: P5 20 µM; LPS 1 µg/ml; RAW 264.7, serum-free DMEM; luciferin:luciferase; P < 0.05 versus +LPS
# Protocol: In addition to the LY dye uptake, we also employed the ATP release assay to measure the Cx43 hemichannel activities. The current gold standard for ATP quantification relied on luciferin:luciferase chemistry where the enzyme luciferase catalyzed the oxidation of ATP and luciferin ultimately resulting in the generation of a photon which could be quantified by luminometry using a luminometer plate reader (Synergy H1 Hybrid, Biotek, Winooski, U.S.A.) and the amount of ATP was calculated from standard curve. Briefly, RAW 264.7 cells were cultured in serum-free DMEM medium, and stimulated with LPS (1 µg/ml) in the absence or presence of Cx43 mimetic peptide (P5, 20 µM). The cell-conditioned culture medium was collected and subjected to ATP measurement. We used the Molecular Probes® ATP Determination Kit (Cat. # A22066, Life Technologies), which was based on luciferase’s absolute requirement for ATP in producing light (emission maximum ~560 nm at pH 7.8), to measure the extracellular ATP levels in LPS-stimulated RAW 264.7 cells.
# [7] = tested on: LPS-induced Cx43 upregulation, macrophages; test: LPS-induced Cx43 upregulation in presence of P5; assay type: cell-based; details: macrophage cultures; data not shown
# Protocol: The cellular levels of Cx43 and phosphor-PKR were determined by Western blotting analysis using an affinity-purified rabbit anti-Cx43 or anti-phospho-PKR (Thr^451) IgGs as previously described[9],[25],[53]. The levels of HMGB1 in the culture medium were determined by Western blotting analysis as described previously. The level of β-actin was used as a reference of total cellular proteins. Briefly, an equal volume of culture medium (conditioned by identical macrophage cell numbers) was harvested, and protein content was concentrated by ultrafiltration (with a molecular weight cutoff of 10.0 kDa), and then normalized to the same volume with a sample buffer. Proteins in equal sample volume were resolved on sodium dodecyl sulfate (SDS)-polyacrylamide gels, and transferred to polyvinylidene difluoride (PVDF) membranes. After blocking with 5% nonfat milk, the membrane was incubated with respective antibodies (anti-Cx43, 1:1000; anti-phospho-PKR, 1:1000; anti-HMGB1, 1:1,000; anti-β-actin. 1:5,000) overnight. Subsequently, the membrane was incubated with the appropriate secondary antibody, and the immunoreactive bands were visualized by chemiluminescence techniques.
# [8] = tested on: gap junctional intercellular communication, NIH 3T3 fibroblasts; test: Scrape-loading assay of GJ intercellular communication; assay type: cell-based; details: LY (444 Da) and rhodamine dextran (10,000 Da), overnight or 20 min incubation, 2 min diffusion
# Protocol: We used NIH 3T3 fibroblasts to investigate the effects of Cx43 mimetic peptides on GJ permeability employing a technique termed scrape-loading. After overnight or 20 min incubation with or without Cx43 mimetic peptides in DMEM, EGTA was added to DMEM to deplete free calcium. Immediately afterwards, 1% LY and 1% rhodamine dextran was added into PBS, followed by scraping the cell monolayer with a pipette tip loading tracers into cytoplasmic compartment of scraped cells. Tracers were allowed to diffuse to adjacent cells for 2 min before immobilized by PF fixation for 10 minutes. Cells were subsequently extensively washed in PBS three times and coversliped to allow examination of LY diffusion.
substance,measurement,setting,value
"ENVCYD [P5, cysteine-containing Cx43 EL1 mimetic hexamer peptide, P5 (ENVCYD)]",LPS-induced trypan blue uptake,[1],significantly suppressed the LPS-induced elevation of trypan blue uptake
same,animal survival rates (in words),"[2]; +2 h and +24 h after onset of sepsis, P < 0.05 versus CLP + Saline",significant increase in animal survival rates
same,animal survival,"[2]; i.p., +2, +24 h post CLP, up to two weeks, saline 30%, P < 0.05, Kaplan-Meier",85%
same,binding to Cx43 EL2 peptide,Cx43 EL2 peptide,did not find evidence of P5 interacting
same,TUNEL-positive cells in septic lungs,[3],significantly reduced the number of TUNEL-positive cells in septic lungs
same,LY uptake in calcium-containing medium,[4],did not alter macrophage LY uptake in calcium-containing medium
same,other cytokines and chemokines,[5],did not affect
same,binding to Cx43 EL1 peptide,Cx43 EL1 peptide,did not find evidence of P5 interacting
same,LPS-induced ATP release,[6],significantly attenuated the LPS-induced ATP release
same,LPS-induced Cx43 upregulation,[7],did not affect the LPS-induced Cx43 upregulation
same,gap junctional transfer of LY / RD immobility,[8],no obvious difference in the LY diffusion or RD immobility patterns
